This note sets out measurements from ChEMBL document CHEMBL1155607, “Antigiardial activity of isoflavones from Dalbergia frutescens bark” (J Nat Prod, 2000).

The test system of series [1] is Giardia intestinalis. Kind of series: […] activity against Giardia intestinalis ATCC 30888 at 10 ug/mL after 48 hrs by XTT assay. The class given is functional, organism-based. Particulars: Giardia duodenalis. Background: Tetrazolium assays rely on reduction of a dye to a coloured formazan, in cell work by metabolically active cells.
The subject of series [2] is Giardia intestinalis. Briefly: Antifungal activity against Giardia intestinalis. The class given is functional, organism-based. Particulars: Giardia duodenalis.
The subject of series [3] is Giardia intestinalis. Kind of series: […] activity against Giardia intestinalis ATCC 30888 after 48 hrs by XTT assay. The class given is functional, organism-based. The following applies: Giardia duodenalis.
Series [4] has as its system Giardia intestinalis. Kind of series: […] activity against Giardia intestinalis ATCC 30888 assessed as impairment of parasite motility after 2 hrs. The class given is functional, organism-based. Particulars: Giardia duodenalis.
For series [5], the system named is Giardia intestinalis. Kind of series: […] activity against Giardia intestinalis ATCC 30888 assessed as impairment of parasite motility after 4 hrs. The class given is functional, organism-based. Particulars: Giardia duodenalis.
For series [6], the system named is Vero. Kind of series: Cytotoxicity against african green monkey Vero cells up to 50 ug/mL after 48 hrs by neutral red dye assay. It counts as cell-based. The following applies: chlorocebus sabaeus.
Series [7] has as its system Mus musculus. Kind of series: Toxicity in C57B mouse assessed as induction of adverse grooming behavior at 40 mg/kg, po administered once daily for 3 days. It counts as organism-based. Details: dose 40 mg/kg, route oral. Particulars: in vivo, 72 h.
The subject of series [8] is Mus musculus. Kind of series: Toxicity in C57B mouse assessed as induction of adverse feeding behavior at 40 mg/kg, po administered once daily for 3 days. It counts as organism-based. Set-up: dose 40 mg/kg, route oral. Particulars: in vivo, 72 h.
The test system of series [9] is Mus musculus. Briefly: Toxicity in C57B mouse assessed as adverse effect on body weight at 40 mg/kg, po administered once daily for 3 days. It counts as organism-based. Set-up: dose 40 mg/kg, route oral. The following applies: in vivo, 72 h.
The subject of series [10] is Mus musculus. Briefly: Toxicity in C57B mouse assessed as induction of adverse effect on gross behavior at 40 mg/kg, po administered once daily for 3 days. The class given is organism-based. Details: dose 40 mg/kg, route oral. The following applies: in vivo, 72 h.
Series [11] deals with Mus musculus. Kind of series: Toxicity in C57B mouse assessed as induction of adverse effect on appearance at 40 mg/kg, po administered once daily for 3 days. The class given is organism-based. Details: dose 40 mg/kg, route oral. The following applies: in vivo, 72 h.
Series [12] deals with Giardia intestinalis. Briefly: […] activity against Giardia intestinalis infected in C57B mouse assessed as increase in disease cure rate at 10 mg/day administered 3 day postinfection for 4 days. It counts as functional, organism-based. The following applies: Giardia duodenalis.
Series [13] relates to Giardia intestinalis. Kind of series: […] activity against Giardia intestinalis infected in C57B mouse assessed as decrease in intestinal parasite load at 10 mg/day administered 3 day postinfection for 4 days. It counts as functional, organism-based. Particulars: Giardia duodenalis.
Series [14] has as its system Giardia intestinalis. Briefly: […] activity against Giardia intestinalis infected in C57B mouse assessed as intestinal motile trophozoites count at 10 mg/day administered 3 day postinfection for 4 days. The class given is functional, Giardia duodenalis.
The test system of series [15] is Trichomonas. Briefly: Antimicrobial activity against Trichomonas up to 25 ug/mL. The class given is functional, organism-based.
In series [16] the test system is Trichomonas. Kind of series: Antimicrobial activity against Trichomonas. The class given is functional, organism-based.

In brackets after ≈: the same amount, converted by molar mass. Activity calls are given as the source filed them. No cut-off for these calls is given here.

As to `COc1cc2c(=O)c(-c3ccc(O)cc3)coc2cc1O`, the result in series [1] was inactive.
The same measure, in the same setting: as for `COc1ccc(-c2coc3cc(O)c(OC)cc3c2=O)cc1O`, the entry is “inactive”.
Consider `Oc1cc(O)c2c(c1)O[C@H](c1ccc(O)c(O)c1)[C@H](O)C2` [(-)-EPICATECHIN], for which, in series [2], the IC50 (usually the point on the concentration scale where inhibition reaches its midpoint) is less than 1 µg/mL.
In series [3], `COc1ccc(-c2coc3cc(O)cc(O)c3c2=O)cc1` [BIOCHANIN] gave an IC50 of 3.5 µg/mL (≈ 12.3 µM).
Consider `COc1ccc(-c2coc3cc(O)c(OC)cc3c2=O)cc1` [CASTANIN], for which the 50% inhibitory concentration (IC50) in [3] was greater than 5 µg/mL.
With `COc1cc2c(cc1-c1coc3cc(O)ccc3c1=O)OCO2` [CUNEATIN], the half-maximal inhibitory concentration (IC50) in [3] was greater than 10 µg/mL. Besides, in series [1], the result was inactive.
For `O=c1c(-c2ccc(O)cc2)coc2cc(O)ccc12` [DAIDZEIN], half-maximal inhibition in series [3] (IC50) required 3.75 µg/mL (≈ 14.7 µM).
`COc1ccc(-c2coc3cc(O)ccc3c2=O)cc1` [FORMONONETIN]: the values for the IC50 in series [3], in series [4] and in [5] were 0.03 µg/mL (≈ 0.112 µM), less than 1 µg/mL and less than 1 µg/mL, respectively. Besides, the Activity result in series [6], in series [7], in series [8], in series [9], in series [10] and in series [11] was “Non-toxic” in each case. For the same compound, the Activity in [14] is 0.1. The outcome in series [12], in series [13] and in series [15] was Active.
Compound `COc1cc2c(=O)c(-c3ccc4c(c3)OCO4)coc2cc1O` [FUJIKINETIN] gave an IC50 in series [3] of 1.5 µg/mL (≈ 4.8 µM).
Same read-out and setting: as for `O=c1c(-c2ccc(O)cc2)coc2cc(O)cc(O)c12` [GENISTEIN], the figure is greater than 5 µg/mL.
Consider `Cc1ncc([N+](=O)[O-])n1CCO` [METRONIDAZOLE], for which half-maximal inhibition in series [3] (IC50) was put at 0.1 µg/mL (≈ 0.584 µM). Moreover, the outcome in series [4] and in series [5] was inactive. The result in series [16] was Active.
In the case of `O=c1c(-c2ccc3c(c2)OCO3)coc2cc(O)ccc12` [PSEUDOBAPTOGENIN], in [3], the 50% inhibitory concentration (IC50) was 0.56 µg/mL (≈ 1.98 µM).
